Assays:
Rattus norvegicus [1] = assay: Potency in rat paw edema assay; type: functional
[2] = target: Prostaglandin G/H synthase 1 (Homo sapiens, UniProt P23219); type: microsomes, U-937, Microsome
Description: Inhibition of COX-1 in U-937 (human lymphoma) cell microsomes.

[3] = Maximum concentration for the bioavailability at a dose of 20 mg/kg administered orally; type: ADME, organism-based; set-up: dose 20 mg/kg, route oral; details: in vivo, po
[4] = Slow clearance (CL) was determined; type: ADME, organism-based; details: in vivo
Rattus norvegicus [5] = organism: Rattus norvegicus; assay: Potency by rat pyrexia assay; type: functional
Rattus norvegicus [6] = organism: Rattus norvegicus; assay: Potency by rat hyperalgesia assay; type: functional
Rattus norvegicus [7] = organism: Rattus norvegicus; assay: Potency by rat adjuvant arthritis assay; type: functional

Chain of Prostaglandin G/H synthase 1 (P23219 whole entry): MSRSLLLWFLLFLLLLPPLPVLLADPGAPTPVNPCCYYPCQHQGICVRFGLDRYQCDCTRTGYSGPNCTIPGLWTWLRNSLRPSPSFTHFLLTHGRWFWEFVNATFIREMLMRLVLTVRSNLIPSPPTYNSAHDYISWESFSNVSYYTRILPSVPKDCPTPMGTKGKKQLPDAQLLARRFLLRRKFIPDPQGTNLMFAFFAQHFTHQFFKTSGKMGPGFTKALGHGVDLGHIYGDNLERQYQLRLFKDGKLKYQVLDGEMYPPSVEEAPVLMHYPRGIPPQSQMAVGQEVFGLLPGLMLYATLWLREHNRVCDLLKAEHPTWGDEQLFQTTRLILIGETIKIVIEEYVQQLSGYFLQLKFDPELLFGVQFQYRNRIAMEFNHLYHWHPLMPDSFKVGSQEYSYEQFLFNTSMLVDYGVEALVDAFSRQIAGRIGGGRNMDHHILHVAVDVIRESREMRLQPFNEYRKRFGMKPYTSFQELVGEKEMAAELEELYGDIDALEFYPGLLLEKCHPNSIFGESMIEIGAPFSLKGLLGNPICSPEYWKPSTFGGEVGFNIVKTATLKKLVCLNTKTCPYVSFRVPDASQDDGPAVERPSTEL

Row | IC50 [2] | SMILES | further results
1 | – | CS(=O)(=O)c1ccc(C2=C(c3ccccc3)C(=O)OC2)cc1 [ROFECOXIB] | ED50 (Rattus norvegicus [1]): 1.5 mg/kg
2 | > 10 µM | CC1(C)OC(=O)C(Oc2cnccn2)=C1c1ccc(S(C)(=O)=O)cc1 | –
3 | 4.6 µM | CC1(C)OC(=O)C(Oc2ccc(F)cn2)=C1c1ccc(S(C)(=O)=O)cc1 | –
4 | 3 µM | CC1(C)OC(=O)C(Oc2cccc3cnccc23)=C1c1ccc(S(C)(=O)=O)cc1 | –
5 | < 0.3 µM | CC1(C)OC(=O)C(Oc2ccc3sccc3c2)=C1c1ccc(S(C)(=O)=O)cc1 | –
6 | > 100 µM | CC1(C)OC(=O)C(Oc2ccncc2)=C1c1ccc(S(C)(=O)=O)cc1 | –
7 | 0.3 µM | CC1(C)OC(=O)C(Oc2ncc(Cl)cc2Cl)=C1c1ccc(S(C)(=O)=O)cc1 | –
8 | > 10 µM | CC1(C)OC(=O)C(Oc2ccccn2)=C1c1ccc(S(C)(=O)=O)cc1 | ED50 (Rattus norvegicus [1]): > 10 mg/kg
9 | 1 µM | CC1(C)OC(=O)C(Oc2ccc3[nH]ccc3c2)=C1c1ccc(S(C)(=O)=O)cc1 | –
10 | – | CC1(C)OC(=O)C(Oc2ccc(Cl)cn2)=C1c1ccc(S(C)(=O)=O)cc1 | Cmax [3]: 16 µM; ED50 (Rattus norvegicus [1]): 0.75 mg/kg; CL [4]: 4.8
11 | 1 µM | CC1(C)OC(=O)C(Oc2ncccc2Cl)=C1c1ccc(S(C)(=O)=O)cc1 | –
12 | 3 µM | CC1(C)OC(=O)C(Oc2ccc3ccccc3n2)=C1c1ccc(S(C)(=O)=O)cc1 | –
13 | 3 µM | Cc1ccc(OC2=C(c3ccc(S(C)(=O)=O)cc3)C(C)(C)OC2=O)nc1 | –
14 | 3 µM | CC1(C)OC(=O)C(Oc2ccc(C3CC3)cn2)=C1c1ccc(S(C)(=O)=O)cc1 | –
15 | 5.6 µM | CC1(C)OC(=O)C(Oc2ccc(Br)cn2)=C1c1ccc(S(C)(=O)=O)cc1 | ED50 (Rattus norvegicus [5]): 0.3 mg/kg; ED50 (Rattus norvegicus [6]): 0.6 mg/kg; ED50 (Rattus norvegicus [1]): 0.86 mg/kg; ED50 (Rattus norvegicus [7]): 0.2 mg/kg
16 | > 30 µM | CC1(C)OC(=O)C(Oc2cccnc2)=C1c1ccc(S(C)(=O)=O)cc1 | –
17 | > 10 µM | CC1(C)OC(=O)C(Oc2ncccn2)=C1c1ccc(S(C)(=O)=O)cc1 | –
18 | > 10 µM | CC1(C)OC(=O)C(Oc2ncnc3ccccc23)=C1c1ccc(S(C)(=O)=O)cc1 | –
19 | > 10 µM | CC1(C)OC(=O)C(Oc2cccc(Cl)n2)=C1c1ccc(S(C)(=O)=O)cc1 | –

Source: ChEMBL document CHEMBL1131878, “Synthesis and biological evaluation of 3-heteroaryloxy-4-phenyl-2(5H)-furanones as selective COX-2 inhibitors” (Bioorg Med Chem Lett, 1999)
